US7265152B2 (ViroPharma Incorporated, priority 2002, dated 2007)
Like-named read-outs stand apart in the source and are kept apart here.

Experiments:
HCV NS5B = target: T1, HCV NS5B (Hepatitis C virus genotype 1b, UniProt Q9WMX2); experiment: Inhibition of viral RNA-dependent RNA polymerase (RdRp), in vitro biochemical assay; design: species or system HCV genotype 1b virus (BB7); conditions: read-out: HCV pol-BB7 IC50
T1 construct: fusion protein, of which the carboxyl terminal 21 amino acids were removed to enhance its solubility; His tag (GSHHHHHH); made in house; host or cells: E. coli
In short: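 IC50 values are the concentrations that halve in vitro RNA synthesis by HCV NS5B polymerase. The enzyme was a C-terminally truncated (Δ21), His-tagged genotype 1b (BB7 consensus) protein purified from E. coli.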

[1] = tested on: HCV replicon (BB7 sequence) in Huh-7-Clone A cells; experiment: HCV replicon assay: ELISA of NS5A protein in replicon-containing cells (Inhibition of Viral RNA Replication); format: cell-based; conditions: Hepatitis C virus, read-out: Replicon
In short: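 EC50 taken from an 8-point serially diluted dose curve, with NS5A level as read-out: fixed cells probed with primary monoclonal and HRP-conjugated secondary, TMB developed 30 min, OD 650 nm. Compound exposure 72 h in Huh-7-Clone A replicon cells (BB7 sequence).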

[2] = purified His-tagged NS5B (BB7), carboxyl terminal 21 amino acids removed
[3] = Huh-7-Clone A, NS5A ELISA, 72-hour incubation, ranges of EC50
[4] = ranges of EC50 in HCV replicon assay
[5] = HCV NS5B RdRp, BB7, reported as range class
[6] = HCV replicon assay, ranges of EC50

## CNC(=O)c1c(-c2ccc(C(F)(F)F)cc2)oc2ccc(OC)cc12 [Example 56, 5-Methoxy-2-(4-trifluoromethyl-phenyl)-benzofuran-3-carboxylic acid methylamide]
HCV NS5B; [2]
  IC50: 0.5 to 5 µM
[1]; [3]
  EC50: < 10 µM

## CNC(=O)c1c(-c2ccc(F)cc2)oc2cc(N3CCN(C)CC3)c(OC(C)C)cc12 [Example 132, 2-(4-Fluoro-phenyl)-5-isopropoxy-6-(4-methyl-piperazin-1-yl)-benzofuran-3-carboxylic acid methylamide]
HCV NS5B; HCV NS5B RdRp, BB7 genotype 1b
  IC50: 5 to 30 µM
[1]; [4]
  EC50: > 30 µM

## CNC(=O)c1c(-c2ccc(F)cc2)oc2cc(N3CCC(O)CC3)c(OC(C)C)cc12 [Example 140, 2-(4-Fluoro-phenyl)-6-(4-hydroxy-piperidin-1-yl)-5-isopropoxy-benzofuran-3-carboxylic acid methylamide]
HCV NS5B; HCV NS5B RdRp, BB7 genotype 1b
  IC50: 0.5 to 5 µM
[1]; [4]
  EC50: < 10 µM

## CNC(=O)c1c(-c2ccc(F)cc2)oc2cc(-c3ccn(C)n3)c(OC(C)C)cc12 [Example 232, 2-(4-Fluoro-phenyl)-5-isopropoxy-6-(1-methyl-1H-pyrazol-3-yl)-benzofuran-3-carboxylic acid methylamide]
HCV NS5B; [5]
  IC50: 0.5 to 5 µM
[1]; HCV replicon, range of EC50
  EC50: < 10 µM

## CNC(=O)c1c(-c2ccc(F)cc2)oc2cc(-c3nocc3CCO)c(OC)cc12 [Example 41, 2-(4-Fluoro-phenyl)-6-[4-(2-hydroxy-ethyl)-isoxazol-3-yl]-5-methoxy-benzofuran-3-carboxylic acid methylamide]
HCV NS5B; [2]
  IC50: ≤ 0.5 µM
[1]; [3]
  EC50: < 1 µM

## CCN(c1cc2oc(-c3ccc(F)cc3)c(C(=O)NC)c2cc1F)S(C)(=O)=O [Example 333, 6-(Ethyl-methanesulfonyl-amino)-5-fluoro-2-(4-fluoro-phenyl)-benzofuran-3-carboxylic acid methylamide]
HCV NS5B; HCV NS5B RdRp, BB7, activity class
  IC50: ≤ 0.5 µM
[1]; [6]
  EC50: < 10 µM

## CNC(=O)c1c(-c2ccc(F)cc2)oc2cc(-c3ccoc3)c(OC(C)C)cc12 [Example 152, 2-(4-Fluoro-phenyl)-6-furan-3-yl-5-isopropoxy-benzofuran-3-carboxylic acid methylamide]
HCV NS5B; HCV NS5B RdRp, BB7 genotype 1b
  IC50: ≤ 0.5 µM
[1]; [4]
  EC50: < 10 µM

## CNC(=O)c1c(-c2ccc(F)cc2)oc2cc(N(Cc3ccc(OC)cc3)S(C)(=O)=O)c(OC(C)C)cc12 [Example 281, 2-(4-Fluoro-phenyl)-5-isopropoxy-6-[methanesulfonyl-(4-methoxy-benzyl)-amino]-benzofuran-3-carboxylic acid methylamide]
HCV NS5B; HCV NS5B RdRp, BB7, class symbols A-D
  IC50: ≤ 0.5 µM
[1]; [6]
  EC50: < 1 µM

## CNC(=O)c1c(-c2ccc(F)cc2)oc2cc(N3CCOCC3)c(OCc3nnc(-c4ccc(C)cc4)o3)cc12 [Example 207, 2-(4-Fluoro-phenyl)-6-morpholin-4-yl-5-(5-p-tolyl-[1,3,4]oxadiazol-2-ylmethoxy)-benzofuran-3-carboxylic acid methylamide]
HCV NS5B; [5]
  IC50: 5 to 30 µM
[1]; HCV replicon, range of EC50
  EC50: < 10 µM
